biological target: T1, B2 bradykinin receptor (Homo sapiens) (UniProt P30411); test: Binding affinity towards human bradykinin B2 receptor (membranes from Cos-7 cells expressing human B2 receptor) using [3H]BK as radioligand; type: cell membranes; settings: concentration not given here
T1 sequence (whole entry): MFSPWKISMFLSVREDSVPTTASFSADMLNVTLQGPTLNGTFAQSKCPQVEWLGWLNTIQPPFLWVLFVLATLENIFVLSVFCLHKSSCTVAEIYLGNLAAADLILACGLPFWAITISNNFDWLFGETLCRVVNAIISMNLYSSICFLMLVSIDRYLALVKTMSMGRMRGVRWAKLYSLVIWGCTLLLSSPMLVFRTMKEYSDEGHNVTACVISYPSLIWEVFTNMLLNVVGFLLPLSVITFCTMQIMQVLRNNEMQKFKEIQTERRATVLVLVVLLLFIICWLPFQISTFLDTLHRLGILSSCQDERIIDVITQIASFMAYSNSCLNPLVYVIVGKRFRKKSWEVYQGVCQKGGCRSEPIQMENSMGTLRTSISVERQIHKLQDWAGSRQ

SMILES	inhibition [%]
NCCCCN1C(=O)C(Cc2ccccc2)N=C(c2ccccc2)c2ccccc21 (centres undefined)	26

biological target: T2, B2 bradykinin receptor (Homo sapiens, UniProt P30411); test: Binding affinity towards human bradykinin B2 receptor (membranes from Cos-7 cells expressing human B2 receptor) using [3H]-BK as radioligand; type: cell membranes; settings: not given
T2 sequence (P30411 whole entry): T1 sequence (whole entry)

SMILES	Ki [µM]
NC(N)=Nc1cccc(CN2C(=O)[C@H](Cc3ccccc3)N=C(c3ccccc3)c3ccccc32)c1	15.8
Nc1cccc(CN2C(=O)C(Cc3ccccc3)N=C(c3ccccc3)c3ccccc32)c1 (centres undefined)	> 100
N=C(N)NCCCCN1C(=O)C(Cc2ccccc2)N=C(c2ccccc2)c2ccccc21 (centres undefined)	21.3
NC(N)=Nc1cccc(CN2C(=O)C(Cc3ccccc3)N=C(c3ccccc3)c3ccccc32)c1 (centres undefined)	8.9
N=C(N)Nc1ccc(N2C(=O)C(Cc3ccccc3)N=C(c3ccccc3)c3ccccc32)cc1 (centres undefined)	9.2
O=C(O)CN1C(=O)C(Cc2ccccc2)N=C(c2ccccc2)c2ccccc21 (centres undefined)	> 100
O=C1Nc2ccccc2C(c2ccccc2)=NC1Cc1ccccc1 (centres undefined)	> 100
N=C(N)Nc1cccc(CN2C(=O)[C@@H](Cc3ccccc3)N=C(c3ccccc3)c3ccccc32)c1	11.9

Source: ChEMBL document CHEMBL1131934, “The design of non-peptide human bradykinin B2 receptor antagonists employing the benzodiazepine peptidomimetic scaffold” (Bioorg Med Chem Lett, 1999)
